Key:
Assay in all cases: relative viability (nuclei count vs DMSO), 5 days (fraction); higher = more cells survive
Midostaurin + Linsitinib = compound: CO[C@@H]1[C@H](N(C)C(=O)c2ccccc2)C[C@H]2O[C@]1(C)n1c3ccccc3c3c4c(c5c6ccccc6n2c5c31)C(=O)NC4 [Midostaurin] + C[C@]1(O)C[C@@H](c2nc(-c3ccc4ccc(-c5ccccc5)nc4c3)c3c(N)nccn32)C1 [Linsitinib] (partner 1 µM)
In short: (§1)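 Medians of duplicate plates are given as relative viability. That measure is the nuclei count in treated wells divided by the count in vehicle wells. Counts were taken on 4× images of lung cancer cell lines in 1536-well plates, 5 days after pin-tool dosing the day after seeding with one drug alone or a fixed anchor-drug dose plus five library-drug doses (not always all listed) in √10 steps.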

[1] = compound: COc1cc(-c2nn([C@H]3CC[C@H](N4CCN(C(C)=O)CC4)CC3)c3ncnc(N)c23)ccc1NC(=O)c1cc2ccccc2n1C + CC(=O)c1c(C)c2cnc(Nc3ccc(N4CCNCC4)cn3)nc2n(C2CCCC2)c1=O [Palbociclib] (partner 0.5 µM)
In short: as §1

[2] = compound: COc1cc(-c2nn([C@H]3CC[C@H](N4CCN(C(C)=O)CC4)CC3)c3ncnc(N)c23)ccc1NC(=O)c1cc2ccccc2n1C + Nc1ncn([C@H]2C[C@H](O)[C@@H](CO)O2)c(=O)n1 [Decitabine] (partner 2 µM)
In short: as §1

[3] = compound: COc1cc(-c2nn([C@H]3CC[C@H](N4CCN(C(C)=O)CC4)CC3)c3ncnc(N)c23)ccc1NC(=O)c1cc2ccccc2n1C + CC1(C)CCC(c2ccc(Cl)cc2)=C(CN2CCN(c3ccc(C(=O)NS(=O)(=O)c4ccc(N[C@H](CCN5CCOCC5)CSc5ccccc5)c(S(=O)(=O)C(F)(F)F)c4)cc3)CC2)C1 [Navitoclax] (partner 0.5 µM)
In short: as §1

Midostaurin + Crizotinib = compound: CO[C@@H]1[C@H](N(C)C(=O)c2ccccc2)C[C@H]2O[C@]1(C)n1c3ccccc3c3c4c(c5c6ccccc6n2c5c31)C(=O)NC4 [Midostaurin] + C[C@@H](Oc1cc(-c2cnn(C3CCNCC3)c2)cnc1N)c1c(Cl)ccc(F)c1Cl [Crizotinib] (partner 1 µM)
In short: as §1

Cell Line | relative viability (Midostaurin + Linsitinib; first compound 0.01 µM) | relative viability (Midostaurin + Linsitinib; first compound 0.03162 µM) | relative viability (Midostaurin + Linsitinib; first compound 0.1 µM) | relative viability (Midostaurin + Linsitinib; first compound 0.3162 µM) | relative viability ([1]; first compound 0.0128 µM) | relative viability ([1]; first compound 0.04048 µM) | relative viability ([1]; first compound 0.128 µM) | relative viability ([1]; first compound 1.28 µM) | relative viability ([2]; first compound 0.0128 µM) | relative viability ([2]; first compound 0.04048 µM) | relative viability ([2]; first compound 0.128 µM) | relative viability ([2]; first compound 1.28 µM) | relative viability ([3]; first compound 0.0128 µM) | relative viability ([3]; first compound 0.04048 µM) | relative viability ([3]; first compound 0.128 µM) | relative viability ([3]; first compound 1.28 µM) | relative viability (Midostaurin + Crizotinib; first compound 0.01 µM) | relative viability (Midostaurin + Crizotinib; first compound 0.03162 µM) | relative viability (Midostaurin + Crizotinib; first compound 0.1 µM) | relative viability (Midostaurin + Crizotinib; first compound 0.3162 µM)
NCI-H838 | 1.01 | 0.828 | 0.739 | 0.367 | 0.222 | 0.208 | 0.216 | 0.181 | 0.484 | 0.505 | 0.518 | 0.432 | 1.26 | 1.18 | 1.23 | 0.859 | 0.877 | 0.634 | 0.812 | 0.524
NCI-H1355 | 0.755 | 0.83 | 0.865 | 0.838 | 0.448 | 0.402 | 0.416 | 0.415 | 0.332 | 0.35 | 0.338 | 0.372 | 1.02 | 0.923 | 0.928 | 0.967 | 0.965 | 1.01 | 0.987 | 1
NCI-H1437 | 1.2 | 0.992 | 1.12 | 1.05 | 0.302 | 0.326 | 0.281 | 0.283 | 0.576 | 0.6 | 0.558 | 0.599 | 1.09 | 1.1 | 1.05 | 1.02 | 0.935 | 0.87 | 0.878 | 1
NCI-H1651 | 1.06 | 0.851 | 1.03 | 0.957 | 0.522 | 0.539 | 0.513 | 0.49 | 0.587 | 0.654 | 0.605 | 0.438 | 1.09 | 1.07 | 1.07 | 0.963 | 0.916 | 0.85 | 0.918 | 0.889
NCI-H1666 | 0.897 | 0.916 | 0.77 | 0.822 | 0.678 | 0.661 | 0.6 | 0.622 | 0.71 | 0.673 | 0.758 | 0.66 | 0.883 | 0.805 | 0.806 | 0.955 | 0.874 | 1.12 | 0.858 | 0.787
NCI-H1734 | 0.832 | 0.803 | 0.728 | 0.928 | 0.37 | 0.332 | 0.335 | 0.276 | 0.521 | 0.468 | 0.516 | 0.479 | 0.879 | 0.719 | 0.744 | 0.736 | 0.653 | 0.691 | 0.705 | 0.647
NCI-H1755 | 0.97 | 0.923 | 0.865 | 0.692 | 0.54 | 0.467 | 0.458 | 0.402 | 0.768 | 0.738 | 0.699 | 0.611 | 1.09 | 1.01 | 0.927 | 0.803 | 0.808 | 0.805 | 0.761 | 0.484
NCI-H1792 | 0.577 | 0.556 | 0.499 | 0.526 | 0.663 | 0.626 | 0.657 | 0.636 | 0.566 | 0.504 | 0.532 | 0.598 | 0.611 | 0.499 | 0.609 | 0.624 | 0.947 | 1.02 | 0.967 | 1.02
NCI-H1915 | 1.05 | 1.06 | 1.09 | 1.11 | 0.578 | 0.441 | 0.495 | 0.44 | 0.293 | 0.244 | 0.264 | 0.262 | 0.851 | 0.755 | 0.758 | 0.706 | 0.889 | 0.889 | 0.979 | 0.94
NCI-H1944 | 1.17 | 1.25 | 1.31 | 1.28 | 0.352 | 0.32 | 0.363 | 0.203 | 0.483 | 0.371 | 0.456 | 0.451 | 1.04 | 0.999 | 0.982 | 0.764 | 1.07 | 1.08 | 1 | 1.1
NCI-H1975 | 0.92 | 0.959 | 0.727 | 0.575 | 0.534 | 0.541 | 0.513 | 0.23 | 0.406 | 0.33 | 0.376 | 0.235 | 1.11 | 1.17 | 1.08 | 0.697 | 1 | 0.963 | 0.863 | 0.623
NCI-H1993 | 0.782 | 0.712 | 0.655 | 0.669 | 0.616 | 0.58 | 0.617 | 0.605 | 0.632 | 0.575 | 0.681 | 0.617 | 0.898 | 0.886 | 0.873 | 0.709 | 0.879 | 0.762 | 1.06 | 0.893
NCI-H2009 | 1.2 | 1.05 | 1.06 | 1.19 | 0.172 | 0.148 | 0.219 | 0.179 | 0.352 | 0.386 | 0.33 | 0.357 | 1.16 | 1.16 | 1.2 | 1.14 | 1.07 | 0.98 | 0.996 | 1.06
NCI-H2023 | 0.653 | 0.617 | 0.515 | 0.403 | 0.436 | 0.358 | 0.318 | 0.293 | 0.219 | 0.219 | 0.218 | 0.228 | 0.999 | 1.06 | 1.02 | 0.835 | 0.642 | 0.613 | 0.584 | 0.499
NCI-H2085 | 0.842 | 0.865 | 0.801 | 0.768 | 0.491 | 0.48 | 0.455 | 0.441 | 0.579 | 0.436 | 0.58 | 0.553 | 1.16 | 1.23 | 1.19 | 1.01 | 0.769 | 0.805 | 0.814 | 0.582
